According to patent US4048334A, “Active derivatives of methylamino in therapeutic compositions and methods of use” (priority 1974, dated 1977):
Entries after “also recorded” stand apart in the source; their conditions may differ.

Tests used:
[1] = test system: electrocardiogram; experiment: Effect on the electrocardiogram; type: in vivo; conditions: dog, in vivo; listed as preferred compound of the invention
[2] = Emetic action; type: in vivo; conditions: dog, any dose
Source text: Furthermore, the compounds of the invention have no emetic action in the dog at any doses and are not cholinolytic agents.

[3] = test system: reserpine-induced catatonia; experiment: Suppression of reserpine-induced catatonia (curative treatment); type: in vivo, rat (male, OFA strain); parameters: key to catatonia score (maximum 5 per batch): number of animals (of 5) still in catatonia; max 5 per batch
Description: a. Suppression of reserpine-induced catatonia
Batches of 5 male rats of the OFA strain, weighing 150 to 200 g were given 5 mg/kg of reserpine by intraperitoneal route. One hour and 45 minutes later, namely when the animals were in a state of catatonia, an aqueous dose of the compound to be studied was administered by oral route to all the animals with the exception of the control group.
The progress of the catatonia was then noted following the scale used in the tests described hereabove.
The maximum score was thus 5 per batch which means that all the animals of the batch were considered to be still in a state of catatonia.

[4] = test system: tremorine-induced cholinergic effects; experiment: Anti-tremorine test (cholinolytic properties in vivo); parameters: species or system mice (male, OF1 strain); key to peripheral cholinergic effects score (salivation, sweating, weeping): 0: no action; 1: slight action; 2: average action; 3: strong action; 4: very strong action
Description: For this purpose, the following test was performed with a view to determining the anti-tremorine properties of Compound 1.
When injected into mice, tremorine produces peripheral effects i.e. weeping, sweating, salivation and diarrhoea and central effects i.e. tremor and akinesia. Such effects are due to an increase in the amount of intracerebral acetylcholine and serotonine.
Male mice of the OF1 strain weighing about 22 g were divided into batches of 10. […] Thirty minutes later a dose of 10 mg/kg of tremorine was injected by intraperitoneal route and, at different times after this injection, note was taken of the cholinergic effects on each animal in accordance with the following scale: […]

[5] = test system: catalepsy; experiment: Inhibition of catalepsy (crossing of homolateral paws, prochlorperazine); type: in vivo, rat; conditions: 5 mg/kg oral, 30 min before prochlorperazine i.p., 3 hours after
Description: Additional trials were carried out on rats with Compound 1 and amantadine. These trials involved catalepsy as evidenced by the crossing of the animals' homolateral paws.

[6] = Spasmolytic / cholinolytic (anticholinergic) activity in vivo or unspecified; conditions: at antiparkinsonian doses well below the toxic dose
[7] = test system: peripheral noradrenergic phenomena (arterial pressure, nictitating membrane); experiment: Influence on peripheral noradrenergic phenomena (norepinephrine, arterial pressure and nictitating membrane)
[8] = SPERBER et al., J. Amer. Chem. Soc., 71, 3352 (1949); cited from earlier work
[9] = test system: reserpine-induced catatonia; experiment: Inhibition of reserpine-induced catatonia; type: in vivo, rat (male, OFA strain)
Description: 1. Inhibition of reserpine-induced catatonia
After sufficient doses of reserpine have been administered to the rat, a series of symptoms occur, more particularly ptosis, catatonia and a drop in central temperature. These symptoms are caused by the depletion of the intragranular reserve pool of boigenetic amines at the synaptic terminals.
An oral dose of the compound to be studied in aqueous solution was administered to batches of 10 male rats of the OFA strain weighing about 150 to 200 g. Thirty minutes later a dose of 5 mg/kg of reserpine was given by intraperitoneal route. Three hours after the injection of reserpine, the animals were suspended by the four paws to a horizontally stretched wire fixed at 15 cm from the ground. The catatonic animals were those which maintained the position so given for at least 30 seconds. […] The maximum score was therefore 10 per batch. An identical trial was undertaken with control animals which received reserpine but none of the compounds being studied.

[10] = test system: isolated duodenum of the rat; experiment: MAGNUS test: inhibition of acetylcholine spasm (cholinolytic / spasmolytic activity in vitro)
Source text: This test consists in determining the dose of acetylcholine which, when added to the bath, provokes spasm of the isolated duodenum of the rat. The next step consists in determining the dose of the compound under study which, when added to the bath 30 seconds before the acetylcholine, reduces the spasm.

[11] = test system: reserpine-induced and neuroleptic-induced catatonia and catalepsy; experiment: Central noradrenergic and dopaminergic properties (general statement); conditions: in vivo
Source text: These latter properties manifest themselves by an inhibitory action on reserpine-induced and neuroleptic-induced catatonia and catalepsy.

[12] = test system: neuroleptic-induced catatonia; experiment: Suppression of neuroleptic-induced catatonia (curative treatment, prochlorperazine); type: in vivo, rat (male, OFA strain); conditions: for catatonia score (5 rats per batch): 5 mg/kg oral
Description: b. Suppression of neuroleptic-induced catatonia
Batches of 5 male rats of the OFA strain were given 12.5 mg/kg of prochlorperazine by intraperitoneal route. Fifty-five minutes later, an oral dose in aqueous solution of the compound to be studied was administered to all the animals with the exception of the control group. The progress of the catatonia was noted following the same scale as that used in the tests described above.

[13] = in vivo; conditions: mouse, mice, oral, aqueous solution, 10 days observation

SMILES: CCCC(N)(CCC)CCC [Compound 1]
- effect on the electrocardiogram [1]: does not cause any undesirable effect on the electrocardiogram; also recorded: devoid of emetic properties and of undesirable side-effects on the electrocardiogram
- emetic action [2]: devoid of emetic properties
- catatonia score (maximum 5 per batch) ([3]; 2.5 mg/kg oral, 2h15 after reserpine): 3
- catatonia score (maximum 5 per batch) ([3]; 2.5 mg/kg oral, 2h30 after reserpine): 2
- catatonia score (maximum 5 per batch) ([3]; 2.5 mg/kg oral, 3h30 after reserpine): 0
- catatonia score (maximum 5 per batch) ([3]; 2.5 mg/kg oral, 2h after reserpine): 4
- catatonia score (maximum 5 per batch) ([3]; 2.5 mg/kg oral, 3h after reserpine): 0
- catatonia score (maximum 5 per batch) ([3]; 2.5 mg/kg oral, 4h after reserpine): 0
- catatonia score (maximum 5 per batch) ([3]; 2.5 mg/kg oral, 5h after reserpine): 0
- catatonia score (maximum 5 per batch) ([3]; 5 mg/kg oral, 2h15 after reserpine): 1
- catatonia score (maximum 5 per batch) ([3]; 5 mg/kg oral, 2h30 after reserpine): 0
- catatonia score (maximum 5 per batch) ([3]; 5 mg/kg oral, 3h30 after reserpine): 0
- catatonia score (maximum 5 per batch) ([3]; 5 mg/kg oral, 2h after reserpine): 5
- catatonia score (maximum 5 per batch) ([3]; 5 mg/kg oral, 3h after reserpine): 0
- catatonia score (maximum 5 per batch) ([3]; 5 mg/kg oral, 4h after reserpine): 0
- catatonia score (maximum 5 per batch) ([3]; 5 mg/kg oral, 5h after reserpine): 0
- rapidity of suppression of reserpine-induced catatonia ([3]; 2.5 and 5 mg/kg oral versus amantadine 80 mg/kg): suppresses reserpine-induced catatonia more rapidly than a dose of 80 mg/kg of amantadine
- times more active than amantadine, reserpine-induced catatonia, curative treatment ([3]; versus amantadine): at least 32 times
- peripheral cholinergic effects score (salivation, sweating, weeping) ([4]; 5 mg/kg oral, 20, 30 and 40 minutes after tremorine 10 mg/kg i.p.): 4
- central cholinergic effects (normal and provoked tremor) ([4]; 5 mg/kg oral, identical to the peripheral score (4)): Identical results
- antitremorine properties ([4]; mouse, in vivo): devoid of antitremorine properties
- inhibition of the catalepsy [5]: complete inhibition of the catalepsy
- spasmolytic activity in vivo [6]: non-existent
- Contractile reaction of the nictitating membrane with electric stimulation ([7]; cumulative dose 0.1 mg/kg i.v.): 15 mm
- Contractile reaction of the nictitating membrane without electric stimulation ([7]; cumulative dose 0.1 mg/kg i.v.): 0 mm
- Increase in arterial pressure after injection of norepinephrine ([7]; cumulative dose 0.1 mg/kg i.v.): 18 mm Hg
- Contractile reaction of the nictitating membrane with electric stimulation ([7]; cumulative dose 1 mg/kg i.v.): 16 mm
- Contractile reaction of the nictitating membrane without electric stimulation ([7]; cumulative dose 1 mg/kg i.v.): 0 mm
- Increase in arterial pressure after injection of norepinephrine ([7]; cumulative dose 1 mg/kg i.v.): 25 mm Hg
- Contractile reaction of the nictitating membrane with electric stimulation ([7]; cumulative dose 3 mg/kg i.v.): 17 mm
- Contractile reaction of the nictitating membrane without electric stimulation ([7]; cumulative dose 3 mg/kg i.v.): 0 mm
- Increase in arterial pressure after injection of norepinephrine ([7]; cumulative dose 3 mg/kg i.v.): 29 mm Hg
- Contractile reaction of the nictitating membrane with electric stimulation ([7]; cumulative dose 5 mg/kg i.v.): 16 mm
- Contractile reaction of the nictitating membrane without electric stimulation ([7]; cumulative dose 5 mg/kg i.v.): 0 mm
- Increase in arterial pressure after injection of norepinephrine ([7]; cumulative dose 5 mg/kg i.v.): 25 mm Hg
- Contractile reaction of the nictitating membrane with electric stimulation ([7]; cumulative dose 10 mg/kg i.v.): 12 mm
- Contractile reaction of the nictitating membrane without electric stimulation ([7]; cumulative dose 10 mg/kg i.v.): 0 mm
- Increase in arterial pressure after injection of norepinephrine ([7]; cumulative dose 10 mg/kg i.v.): 22 mm Hg
- ganglioplegic action ([7]; in vivo): is not a ganglioplegic agent
- potentiation of (peripheral) effects of norepinephrine ([7]; in vivo): does not potentiate the effects either of exogenous norepinephrine or of endogenous norepinephrine
- potentiation of (peripheral) effects of norepinephrine ([7]; in vivo, listed as preferred compound of the invention): does not potentiate the peripheral effects of norepinephrine
- spasmolytic activity and toxicity versus corresponding trialkylethylamines [8]: less spasmolytic and more toxic than the corresponding trialkylethylamines
- Inhibition of reserpine-induced catatonia ([9]; 5 mg/kg oral, 30 min before reserpine 5 mg/kg i.p.): 4 (100% inhibition of catatonia in comparison with the controls (namely a score of 0 per studied batch))
- activity (dose) compared with amantadine, reserpine-induced catatonia ([9]; versus amantadine): as active as amantadine but at a dose which is twenty times inferior to that of amantadine
- spasmolytic activity in vitro [10]: very weak, in fact practically non-existent
- % of inhibition of the spasm ([10]; 0.1 × 10^-3 g/ml of bath): 0%
- % of inhibition of the spasm ([10]; 0.1 × 10^-4 g/ml of bath): 0%
- % of inhibition of the spasm ([10]; 0.1 × 10^-5 g/ml of bath): 0%
- % of inhibition of the spasm ([10]; 0.2 × 10^-2 g/ml of bath): 36%
- % of inhibition of the spasm ([10]; 0.2 × 10^-6 g/ml of bath): 0%
- % of inhibition of the spasm ([10]; 0.5 × 10^-2 g/ml of bath): 60%
- cholinolytic activity in vitro ([10]; in comparison with atropine): virtually non-existent
- degree of activity [11]: marked degree of activity
- catatonia score (5 rats per batch) ([12]; 1h30 after prochlorperazine): 3
- catatonia score (5 rats per batch) ([12]; 2h30 after prochlorperazine): 0
- catatonia score (5 rats per batch) ([12]; 3h30 after prochlorperazine): 0
- catatonia score (5 rats per batch) ([12]; 3h after prochlorperazine): 0
- catatonia score (5 rats per batch) ([12]; 4h after prochlorperazine): 0
- catatonia score (5 rats per batch) ([12]; 5h after prochlorperazine): 0
- rapidity of action against neuroleptic-induced catatonia ([12]; 5 mg/kg versus amantadine 80 mg/kg): acts against neuroleptic-induced catatonia more rapidly than does a dose of 80 mg/kg of amantadine
- times more active than amantadine, neuroleptic-induced catatonia, curative treatment ([12]; versus amantadine): at least 16 times
- LD50 at 240 h [13]: 100 mg/kg
